From paper PMC11222147, “Host defence peptide plectasin targets bacterial cell wall precursor lipid II by a calcium-sensitive supramolecular mechanism” (Nature Microbiology, 2024)
Where a SMILES comes first, the peptide text is derived from it. Bridges are numbered along the chain shown (N, C = ends).

Columns and labels:
[1] = tested on: S. pneumoniae serotype 8; assay: MIC assays under standard conditions; format: cell-based, Streptococcus pneumoniae; conditions: Supplementary Table 1; cation-adjusted MHB + 5% lysed horse blood, 5% CO2, 20–24 h
Procedure: (§1) Plectasin and analogues were serially diluted in cation-adjusted Mueller–Hinton broth (MHB) in round-bottom polypropylene 96-well plates (50 µl per well). Selected bacterial strains were grown from glycerol stocks on blood agar plates. Individual colonies were inoculated in TSB and incubated at 37 °C while shaking until OD600 reached 0.5. Bacterial suspensions were then diluted 100 times in cation-adjusted MHB and distributed (50 μl per well) over the microplate containing the diluted plectasin solutions. Plates were covered by a gas-permeable adhesive membrane and incubated at 37 °C while shaking. MICs were determined by visual inspection after 16–20 h (Staphylococcus) or 20–24 h (Streptococcus). For Streptococcus strains, the broth was additionally supplemented with 5% lysed horse blood, and the microplates were incubated under 5% CO2 atmosphere. In the assays, we used the following strains: S. simulans, S. pneumoniae serotype 8, S. pneumoniae ATCC6305 and Streptococcus pyogenes M3.

[2] = Isothermal titration calorimetry with lipid II LUVs; format: binding; conditions: LUVs 2 mol% lipid II in DOPC, 37 °C
Procedure: About 200 nm large unilamellar vesicles (LUVs) were prepared from 2 mol% lipid II in DOPC by the extrusion technique. ITC measurements were conducted on a low-volume Affinity ITC (TA instruments). All measurements were conducted at 37 °C. Samples were degassed for 10 min before the ITC experiments. The cell was filled with plectasin (in 50 mM HEPES, 150 mM NaCl at pH = 7.2) and titrated with LUVs in the same buffer under constant stirring at 125 r.p.m. The data were analysed using the Nano Analyze software version 3.11.0 (TA Instruments). After baseline correction, the integrated peaks were fitted using an independent binding model. Each measurement was acquired in duplicate.

[3] = tested on: S. pyogenes M3; assay: MIC assays under standard conditions; format: cell-based, Streptococcus pyogenes; conditions: Supplementary Table 1; cation-adjusted MHB + 5% lysed horse blood, 5% CO2, 20–24 h
Procedure: as §1

[4] = tested on: S. simulans 22; format: cell-based, Staphylococcus simulans; conditions: Ca^2+ variable assay
Procedure: Cation-depleted MHB was prepared as previously described[18] and supplemented with MgCl2 (0.5 mM) and ZnSO4 (10 µM). Plectasin was serially diluted twofold over a 96-well polypropylene plate. Serial dilutions of Ca^2+ in calcium-depleted medium were subsequently added to the wells containing the plectasin dilution series, followed by addition of bacterial suspensions. MICs were determined by visual inspection after 16–20 h (Staphylococcus). The effect of reduced Ca^2+ levels on S. simulans growth in the absence of plectasin was assessed by monitoring growth at 37 °C by OD600 over 18 h (Supplementary Fig. 4).

[5] = cited from earlier work
Source text: Extended Data Fig. 5 Plectasin binds to bivalent cations with high affinity and its activity is enhanced by calcium ions. Representative ITC traces of the binding of bivalent cations to plectasin in solution and the effect of Mg^2+ on plectasin-lipid II binding. Heat releases and fits of Mg^2+ (A) or Ca^2+ (B) titrated to plectasin in solution. C) Calculated affinities and thermodynamic parameters experiments from (A) and (B), conducted in duplicate. Heat release traces and fits of the titration of Lipid II DOPC vesicles to plectasin without (D) and with (E) the addition of Mg^2+. F,G). Ca^2+ ...

| Molecule | Minimum inhibitory concentration, S. pneumoniae serotype 8 [1] | lipid II binding by ITC (in words) [2] | Minimum inhibitory concentration, S. pyogenes M3 [3] | improvement of antimicrobial activity with increasing Ca^2+ concentration [4] | increase in MIC if Ca^2+ is replaced by Mg^2+ [5] |
| --- | --- | --- | --- | --- | --- |
| CSCC[C@@H]1NC(=O)[C@H](CC(=O)O)NC(=O)[C@H](CC(=O)O)NC(=O)[C@H](CCC(=O)O)NC(=O)[C@H](CC(=O)O)NC(=O)[C@H](Cc2c[nH]c3ccccc23)NC(=O)[C@@H]2CCCN2C(=O)CNC(=O)[C@H](CC(N)=O)NC(=O)[C@@H](NC(=O)CNC(=O)[C@H](Cc2ccccc2)NC(=O)CN)CSSC[C@@H]2NC(=O)[C@H](Cc3ccc(O)cc3)NC(=O)CNC(=O)CNC(=O)[C@H](CCCCN)NC(=O)[C@H](Cc3ccc(O)cc3)NC(=O)CNC(=O)[C@H](CCCCN)NC(=O)[C@H](C)NC(=O)[C@H](CO)NC(=O)[C@H](CCCCN)NC(=O)[C@@H]3CSSC[C@@H](C(=O)N[C@@H](Cc4ccc(O)cc4)C(=O)O)NC(=O)[C@H](CCCCN)NC(=O)[C@H](CSSC[C@H](NC(=O)[C@H](CCC(N)=O)NC1=O)C(=O)N[C@@H](Cc1c[nH]cn1)C(=O)N[C@@H](CC(N)=O)C(=O)N[C@@H](Cc1c[nH]cn1)C(=O)N3)NC(=O)[C@H](C(C)C)NC(=O)[C@H](Cc1ccccc1)NC(=O)CNC(=O)CNC(=O)[C@H](CCCCN)NC(=O)[C@H](C)NC2=O [I22A] (H-GFGCNGPWDEDDMQCHNHCKSAKGYKGGYCAKGGFVCKCY-OH; disulfide 4-30, 15-37, 19-39 (inferred); N-terminus and C-terminus assumed) | > 25 µg/mL | do not bind lipid II | > 25 µg/mL |  |  |
| daptomycin [reference compound] |  |  |  | > 60 fold | > 100 |
